Consider five molecules from patent US20050131029A1, “Immunophilin ligand treatment of antiretroviral toxic neuropathy” (priority 2003, published 2005).

For data set [1], the system named is primary DRG sensory neurons. Type of data set: cell-based, rat. As to conditions: for relative neurotoxicity (potency in inhibiting neuritic outgrowth): comparison between NRTIs.
The subject of data set [2] is primary DRG sensory neurons. In kind it is cell-based.
Data set [3] has as its system Schwann cells. Briefly: Cell death in Schwann cells of the co-cultures. In kind it is cell-based, rat. The settings on record: ddC dose of 1 mM (data not shown).
Data set [4] relates to primary DRG sensory neurons. As to conditions: rat, 4 h.
Data set [5] relates to Schwann cells.
The subject of data set [6] is primary DRG sensory neurons. Briefly: Neuronal mitochondrial toxicity assay (JC-1 red:green fluorescence in TTC-labeled neurons). The settings on record: 4 hours; NRTIs 1-100 μM, FCCP 25 μM.
Where [7] appears, read: NRTI 1-100 μM added at 3 hours, 15 hours of further incubation.

As for `Cc1cn([C@H]2C[C@H](N=[N+]=[N-])[C@@H](CO)O2)c(=O)[nH]c1=O` [AZT, zidovudine], the “effect on neuritic morphology” value in data set [1] (setting [7]) was “did not have any appreciable effect on neuritic morphology, even at high doses”. In addition, in data set [1], the “relative neurotoxicity (potency in inhibiting neuritic outgrowth)” value is given as “did not exert significant neurotoxicity”.

Consider `Nc1ccn([C@H]2CC[C@@H](CO)O2)c(=O)n1` [ddC, 2′,3′-dideoxycytidine], for which the “TUNEL staining of neurons (marker of apoptosis)” value in data set [2] (ddC 10 μM, 18 hours (data not shown)) is given as “lack of DNA laddering”. In addition, the “neuronal cell death (percentage of neurons labeling with live-cell marker)” value in data set [2] (exposure for 18 hours, varying doses) was “higher doses of ddC were associated with a lower percentage of neurons labeling with the “live-cell” marker”. Further, in data set [3], the “cell death in Schwann cells” value is reported as “no cell death”. For the same molecule, the “concentration achieving the same level of mitochondrial membrane depolarization as (25 μM) FCCP” value in data set [4] is 1000 nM. Further, in data set [1] (setting [7]), the “effect on neuritic morphology” value is recorded as “frank neuritic degeneration was also seen”; the “total neuritic length and number of neurites per neuron” value is “dose-dependent reduction”. The “relative neurotoxicity (potency in inhibiting neuritic outgrowth)” value in data set [1] is listed as “most neurotoxic”. Also, the “mitochondrial depolarization in Schwann cells” value in data set [5] is listed as “no evidence of mitochondrial depolarization”.

Turning to `C=CC[C@@H]1/C=C(\C)C[C@H](C)C[C@H](OC)[C@H]2O[C@@](O)(C(=O)C(=O)N3CCCC[C@H]3C(=O)O[C@H](/C(C)=C/[C@@H]3CC[C@@H](O)[C@H](OC)C3)[C@H](C)[C@@H](O)CC1=O)[C@H](C)C[C@@H]2OC` [FK506], the “concentrations at which prevention of neuronal cell death was most prominent” value in data set [2] (ddC 10 μM, 18 hours) is 10 to 100 nM.

Turning to `N#CC(C#N)=NNc1ccc(OC(F)(F)F)cc1` [FCCP], the “JC-1 red:green luminosity ratio (mitochondrial membrane potential differential)” value in data set [6] is reported as “loss of mitochondrial membrane potential”.

Take `O=c1[nH]cnc2c1ncn2[C@H]1CC[C@@H](CO)O1` [ddl, didanosine]: in data set [4], the “concentration achieving the same level of mitochondrial membrane depolarization as (25 μM) FCCP” value was found to be 1000 nM.
